Test results: the supplement of paper PMC11208160

assay: recombinant UMI read abundance after kanamycin selection (control-corrected) (log10(CPM+1)); higher = more efficient recombination; extreme values may be limits of the assay; sequences stand for … in AGTGCAGAGAAAATCGGCCAGTTTTCTCTGCCTGCAGTCCGCATGCCGTGGGACCCCTTGGGTTCTAACCTGTTGCCTAGATTTATGCAGCGGACTGCCTTTCTCCCAAAGTGATAAACCGG…AGGTTGGTTTCACT; site = the 11-nt donor
How it was run: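 Each donor and donor-binding-loop pair was tracked by a 12-nt UMI on a plasmid carrying a promoterless kanamycin gene. With a second plasmid supplying a fixed target and T7-inducible IS621 bridge recombinase, the pool was plated in Escherichia coli on IPTG (0.07 mM) plus kanamycin or unselected. Sequencing of recombinant UMIs across the donor–target junction gave counts expressed as log10(CPM+1) after replicate averaging and control-derived scaling.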
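Further: IS621 bridge recombinase in Escherichia coli cells against a fixed T5 target plasmid.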

“TTGCCGGCATGGACCGGTTTTCCCGGTAATCCGTATTTGGC (site TTGCCGGCTGC)” and “TTGCCGTCATGGACCGGTTTTCCCGGTAATCCGTATTTGGC (site TTGCCGTCTGC)” are the same in “recombinant UMI read abundance (log10)” value: 0 for the first, 0 for the second.

“TTGCTAGCATGGACCGGTTTTCCCGGTAATCCGTATTTGAA (site TAGCTAGCTTT)” and “TTGCTAGCATGGACCGGTTTTCCCGGTAATCCGTATTTGAA (site TCGCTAGCTTT)” are within 0.2 log units of each other in “recombinant UMI read abundance (log10)” value: 0.016 for the first, 0.0147 for the second.

First: TTGCTAGCATGGACCGGTTTTCCCGGTAATCCGTATTTGAA (site TGGCTAGCTTT)
Second: TTGCTAGCATGGACCGGTTTTCCCGGTAATCCGTATTTGAA (site TTGCTAGCTTT)
The “recombinant UMI read abundance (log10)” value of the first is lower: 0.0255 for the first, 0.252 for the second.

First: TTGCTGTCATGGACCGGTTTTCCCGGTAATCCGTATTTGAT (site TTGCTGTCTAT)
Second: TTGGAATCATGGACCGGTTTTCCCGGTAATCCGTATTTGCA (site TTGGAATCTTG)
The “recombinant UMI read abundance (log10)” value of the first is lower: 0.00531 for the first, 2.76 for the second.

First: TTGGCACCATGGACCGGTTTTCCCGGTAATCCGTATTTGAG (site TTGGCACCTCT)
Second: TTGGCGGCATGGACCGGTTTTCCCGGTAATCCGTATTTGCT (site TTAGCGGCTAG)
The “recombinant UMI read abundance (log10)” value of the first is lower: 0.0325 for the first, 1.3 for the second.

Compared with “TTGGCGGCATGGACCGGTTTTCCCGGTAATCCGTATTTGCT (site TTCGCGGCTAG)”, “TTGGCGGCATGGACCGGTTTTCCCGGTAATCCGTATTTGCT (site TTGGCGGCTAG)” is higher in “recombinant UMI read abundance (log10)” value: 0 for the first, 1.44 for the second.

Going from “TTGGCGGCATGGACCGGTTTTCCCGGTAATCCGTATTTGCT (site TTTGCGGCTAG)” to “TTGGGTGCATGGACCGGTTTTCCCGGTAATCCGTATTTGAT (site TTGGGTGCTAT)”, the “recombinant UMI read abundance (log10)” value rises from 0.00953 to 1.6.

Compared with “TTGGTTTCATGGACCGGTTTTCCCGGTAATCCGTATTTGTT (site TTGGTTTCTAA)”, “TTGTAGACATGGACCGGTTTTCCCGGTAATCCGTATTTGCA (site TTGTAGACTTG)” is higher in “recombinant UMI read abundance (log10)” value: 0.417 for the first, 1.87 for the second.

“TTGTCTACATGGACCGGTTTTCCCGGTAATCCGTATTTGCG (site TTGTCTACTCG)” and “TTGTGACCATGGACCGGTTTTCCCGGTAATCCGTATTTGAT (site TTGTGACCTAT)” are within 0.2 log units of each other in “recombinant UMI read abundance (log10)” value: 0.0108 for the first, 0.00587 for the second.

First: TTGTGAGCATGGACCGGTTTTCCCGGTAATCCGTATTTGGT (site TTGTGAGCTAC)
Second: TTGTTCCCATGGACCGGTTTTCCCGGTAATCCGTATTTGTG (site TTGTTCCCTCA)
The “recombinant UMI read abundance (log10)” value of the first is higher: 0.701 for the first, 0.187 for the second.

Compared with “TTTAATTCATGGACCGGTTTTCCCGGTAATCCGTATTTGCA (site TTTAATTCTTG)”, “TTTAATTCATGGACCGGTTTTCCCGGTAATCCGTATTTGGG (site TTTAATTCTCC)” is higher in “recombinant UMI read abundance (log10)” value: 0 for the first, 1.33 for the second.

“TTTATTACATGGACCGGTTTTCCCGGTAATCCGTATTTGGT (site TTTATTACTAC)” and “TTTATTCCATGGACCGGTTTTCCCGGTAATCCGTATTTGAC (site TTTATTCCTGT)” are within 0.2 log units of each other in “recombinant UMI read abundance (log10)” value: 0.0132 for the first, 0 for the second.

“TTTCAGACATGGACCGGTTTTCCCGGTAATCCGTATTTGTT (site TTTCAGACTAA)” and “TTTCCAACATGGACCGGTTTTCCCGGTAATCCGTATTTGAA (site TTTCCAACTTT)” are within 0.2 log units of each other in “recombinant UMI read abundance (log10)” value: 0.004 for the first, 0.0166 for the second.

Compared with “TTTCCCGCATGGACCGGTTTTCCCGGTAATCCGTATTTGTC (site TTTCCCGCTGA)”, “TTTCCGGCATGGACCGGTTTTCCCGGTAATCCGTATTTGCT (site TTTACGGCTAG)” is lower in “recombinant UMI read abundance (log10)” value: 1.42 for the first, 0.0335 for the second.

“TTTCCGGCATGGACCGGTTTTCCCGGTAATCCGTATTTGCT (site TTTCCGGCTAG)” and “TTTCCGGCATGGACCGGTTTTCCCGGTAATCCGTATTTGCT (site TTTGCGGCTAG)” are within 0.2 log units of each other in “recombinant UMI read abundance (log10)” value: 0.016 for the first, 0.00591 for the second.

Compared with “TTTCCGGCATGGACCGGTTTTCCCGGTAATCCGTATTTGCT (site TTTTCGGCTAG)”, “TTTCTAGCATGGACCGGTTTTCCCGGTAATCCGTATTTGAC (site TTTCTAGCTGT)” is higher in “recombinant UMI read abundance (log10)” value: 0.0123 for the first, 0.582 for the second.

Going from “TTTCTGTCATGGACCGGTTTTCCCGGTAATCCGTATTTGAA (site TTTCTGTCTTT)” to “TTTGCCTCATGGACCGGTTTTCCCGGTAATCCGTATTTGCC (site TTTGCCTCTGG)”, the “recombinant UMI read abundance (log10)” value rises from 0.0118 to 1.48.

“TTTGCGGCATGGACCGGTTTTCCCGGTAATCCGTATTTGAT (site TTTGCGGCTAA)” and “TTTGCGGCATGGACCGGTTTTCCCGGTAATCCGTATTTGAT (site TTTGCGGCTAC)” are within 0.2 log units of each other in “recombinant UMI read abundance (log10)” value: 0.015 for the first, 0.00828 for the second.

Going from “TTTGCGGCATGGACCGGTTTTCCCGGTAATCCGTATTTGAT (site TTTGCGGCTAG)” to “TTTGCGGCATGGACCGGTTTTCCCGGTAATCCGTATTTGAT (site TTTGCGGCTAT)”, the “recombinant UMI read abundance (log10)” value rises from 0 to 0.414.

“TTTGCGGCATGGACCGGTTTTCCCGGTAATCCGTATTTGCT (site ATTGCGGCTAG)” and “TTTGCGGCATGGACCGGTTTTCCCGGTAATCCGTATTTGCT (site CTTGCGGCTAG)” are within 0.2 log units of each other in “recombinant UMI read abundance (log10)” value: 0.00696 for the first, 0.00458 for the second.

“TTTGCGGCATGGACCGGTTTTCCCGGTAATCCGTATTTGCT (site GTTGCGGCTAG)” and “TTTGCGGCATGGACCGGTTTTCCCGGTAATCCGTATTTGCT (site TATGCGGCTAG)” are within 0.2 log units of each other in “recombinant UMI read abundance (log10)” value: 0.00615 for the first, 0.00481 for the second.

“TTTGCGGCATGGACCGGTTTTCCCGGTAATCCGTATTTGCT (site TCTGCGGCTAG)” and “TTTGCGGCATGGACCGGTTTTCCCGGTAATCCGTATTTGCT (site TGTGCGGCTAG)” are within 0.2 log units of each other in “recombinant UMI read abundance (log10)” value: 0 for the first, 0.0128 for the second.

First: TTTGCGGCATGGACCGGTTTTCCCGGTAATCCGTATTTGCT (site TTAGCGGCTAG)
Second: TTTGCGGCATGGACCGGTTTTCCCGGTAATCCGTATTTGCT (site TTCGCGGCTAG)
The “recombinant UMI read abundance (log10)” value of the first is higher: 0.486 for the first, 0 for the second.

Compared with “TTTGCGGCATGGACCGGTTTTCCCGGTAATCCGTATTTGCT (site TTGGCGGCTAG)”, “TTTGCGGCATGGACCGGTTTTCCCGGTAATCCGTATTTGCT (site TTTACGGCTAG)” is higher in “recombinant UMI read abundance (log10)” value: 0.0258 for the first, 0.658 for the second.

“TTTGCGGCATGGACCGGTTTTCCCGGTAATCCGTATTTGCT (site TTTCCGGCTAG)” and “TTTGCGGCATGGACCGGTTTTCCCGGTAATCCGTATTTGCT (site TTTGAGGCTAG)” are within 0.2 log units of each other in “recombinant UMI read abundance (log10)” value: 0.0114 for the first, 0.00621 for the second.

“TTTGCGGCATGGACCGGTTTTCCCGGTAATCCGTATTTGCT (site TTTGCAGCTAG)” and “TTTGCGGCATGGACCGGTTTTCCCGGTAATCCGTATTTGCT (site TTTGCCGCTAG)” are within 0.2 log units of each other in “recombinant UMI read abundance (log10)” value: 0.0183 for the first, 0.00324 for the second.

“TTTGCGGCATGGACCGGTTTTCCCGGTAATCCGTATTTGCT (site TTTGCGACTAG)” and “TTTGCGGCATGGACCGGTTTTCCCGGTAATCCGTATTTGCT (site TTTGCGCCTAG)” are within 0.2 log units of each other in “recombinant UMI read abundance (log10)” value: 0 for the first, 0.00251 for the second.

“TTTGCGGCATGGACCGGTTTTCCCGGTAATCCGTATTTGCT (site TTTGCGGCTAA)” and “TTTGCGGCATGGACCGGTTTTCCCGGTAATCCGTATTTGCT (site TTTGCGGCTAC)” are within 0.2 log units of each other in “recombinant UMI read abundance (log10)” value: 0.0285 for the first, 0.0071 for the second.

Compared with “TTTGCGGCATGGACCGGTTTTCCCGGTAATCCGTATTTGCT (site TTTGCGGCTAG)”, “TTTGCGGCATGGACCGGTTTTCCCGGTAATCCGTATTTGCT (site TTTGCGGCTAT)” is lower in “recombinant UMI read abundance (log10)” value: 0.75 for the first, 0.0119 for the second.

“TTTGCGGCATGGACCGGTTTTCCCGGTAATCCGTATTTGCT (site TTTGCGGCTCG)” and “TTTGCGGCATGGACCGGTTTTCCCGGTAATCCGTATTTGCT (site TTTGCGGCTGG)” are within 0.2 log units of each other in “recombinant UMI read abundance (log10)” value: 0.0133 for the first, 0 for the second.

“TTTGCGGCATGGACCGGTTTTCCCGGTAATCCGTATTTGCT (site TTTGCGGCTTG)” and “TTTGCGGCATGGACCGGTTTTCCCGGTAATCCGTATTTGCT (site TTTGCGTCTAG)” are within 0.2 log units of each other in “recombinant UMI read abundance (log10)” value: 0.00988 for the first, 0.00651 for the second.

“TTTGCGGCATGGACCGGTTTTCCCGGTAATCCGTATTTGCT (site TTTGCTGCTAG)” and “TTTGCGGCATGGACCGGTTTTCCCGGTAATCCGTATTTGCT (site TTTGGGGCTAG)” are within 0.2 log units of each other in “recombinant UMI read abundance (log10)” value: 0 for the first, 0.00746 for the second.

“TTTGCGGCATGGACCGGTTTTCCCGGTAATCCGTATTTGCT (site TTTGTGGCTAG)” and “TTTGCGGCATGGACCGGTTTTCCCGGTAATCCGTATTTGCT (site TTTTCGGCTAG)” are within 0.2 log units of each other in “recombinant UMI read abundance (log10)” value: 0.00957 for the first, 0.00374 for the second.

Compared with “TTTGGCACATGGACCGGTTTTCCCGGTAATCCGTATTTGGC (site TTTGGCACTGC)”, “TTTGGGGCATGGACCGGTTTTCCCGGTAATCCGTATTTGCT (site TTTGAGGCTAG)” is higher in “recombinant UMI read abundance (log10)” value: 0.00668 for the first, 0.621 for the second.
